Measured values taken from US4720494A, “Anticholinergic eucatropine esters and antiperspirant use thereof” (priority 1984, dated 1988).
Values joined by “and” are separate entries in the source; they are usually repeats but may differ in a detail not shown here. Identical values can stand only once.

Key:
[1] = system: sweating of mouse foot (pilocarpine-stimulated); experiment: Mouse foot antiperspirant assay; assay type: in vivo, ICR/CD-1 male albino mice; conditions: for antiperspirant potency relative to eucatropine (in words): DCC esters, compared with parent eucatropine; for EC50: s.c. 5 μL in foot pad, pilocarpine-stimulated sweating, average EC50
Description: For the dose-response determination, four or five groups of 10 ICR/CD-1 male albino mice weighing approximately 20 gm were used. The animals were anaesthetized with 0.20 mL of a 250 mg/mL solution of ethyl carbamate injected intraperitoneally. Anticholinergic test solutions using 0.9% aqueous sodium chloride were injected subcutaneously under the plantar foot pads of the right hind feet of 10 mice per concentration. The 26 gauge, 2 in. needle of a Hamilton 5 μL syringe was inserted at the rear of the plantar surface and threaded forward. The dose, 5 μL, was delivered subcutaneously near the interdigital foot pads. Subsequently, both hind feet were coated with a 1:1 suspension of soluble starch in 2% ethanolic iodine-castor oil.
At 5 minutes after test solution injection, sweating was stimulated by injecting each animal intraperitoneally with 0.20 mL of 1 mg/mL pilocarpine.HCl in 0.9% aqueous sodium chloride. The appearance of blue-black spots within five minutes after stimulation by pilocarpine was the criterion for sweating. The criterion for the animals responding to the anticholinergic was absence of sweating on two or more tubercles of the treated foot. A 7X magnifying glass was used to enlarge the foot for evaluation.
As many concentrations were tested as needed to obtain two points with more than 50% but less than 100% of the animals responding and two points with less than 50% but more than 0% of the animals responding.
For some esters it was necessary to alter the concentration interval to obtain the appropriate spread of responses in a minimum of trials. […] Each compound was run at least twice. The average EC50 was used for comparison with other anticholinergics.

[2] = system: pupil light reflex of rabbit eye; experiment: Rabbit abolition of light reflex assay (RALR), mydriasis
Description: In order to determine the potential for mydriasis produced by the anticholinergic antiperspirant compositions of our invention, the rabbit abolition of light reflex assay was employed. In this assay, solutions of test compounds are instilled in the eyes of rabbits and response to light stimulus followed as a function of time.
The test animals used were female, New Zealand albino rabbits which were 12 to 14 weeks old when first used for testing. A test group consisted of fifteen animals and could be used 8 to 10 weeks before the rabbits became too large to handle.
Prior to the first use of a rabbit group, a determination of the responsiveness of each pupil to a light stimulus was determined. Under room illumination provided by fluorescent tubes, the bilateral symmetry of the pupil light reflex was ascertained by directing a beam of light from a penlight-type of flashlight into each pupil. If proper response was present, the animals were subsequently used.
The mydriatic response to an anticholinergic was determined in the following manner. The animals were held in wooden restrainer boxes during the test. The distance between the mid-sagittal plane of one animal and that of the immediately adjacent animal was 11 inches. Into one conjunctival sac of each animal was installed 0.1 mL of a given concentration of the compound under test in 0.9% sodium chloride. […] Thus, for eucatropine derivatives, solutions were prepared to correspond to one percent eucatropine.HCl. After installation of the solution, the lids of the treated eye were held closed for one minute to prevent the loss of the test dose. After this time the lids were held open by gentle finger pressure, and the cornea and conjunctival sac irrigated with one mL of 0.9% aqueous sodium chloride applied in drops from a 10 mL syringe. The procedure was repeated in the other eye using 0.1 mL 0.9% saline as a control. Each rabbit was treated at two to three minutes following the preceding rabbit.
Observation of the rabbit eye pupil size was made at 30, 60 and 120 minutes after treatment by directing a penlight beam into each pupil. The response of both pupils to light was observed. Any degree of contraction of the pupil of the treated eye which was obviously less than that of the untreated eye was recorded as incomplete (partial) inhibition of the reflex. Failure of the pupil of the treated eye to contract in response to light was recorded as complete inhibition of the reflex. The responses of each rabbit were recorded. Both partial and complete inhibition were recorded as inhibited. The animals were not used again for at least 72 hours and the same eye was not used for treatment by test solutions in successive experiments.

[3] = esters synthesized by DCC method
[4] = esters synthesized by DCC method, fraction of animals with inhibition at 60 min, 1% solutions based on eucatropine
[5] = esters synthesized via acid chloride
[6] = esters synthesized via acid chloride, fraction of animals with inhibition at 60 min, 1% solutions based on eucatropine

## CC1CC(OC(=O)C(OC(=O)c2cnccn2)c2ccccc2)CC(C)(C)N1C.Cl (centres unmarked)
[1]
  antiperspirant potency relative to eucatropine (in words): a reduction in EC50 over eucatropine
[1]; [3]
  EC50: 11 mM
[2]; rabbit, in vivo
  RALR (60 min.): 0.80
  mydriasis in the rabbit eye (in words): reduced mydriasis

## CC1CC(OC(=O)C(OC(=O)c2cnc3ccccc3c2)c2ccccc2)CC(C)(C)N1C.Cl (centres unmarked)
[1]
  antiperspirant potency relative to eucatropine (in words): a reduction in EC50 over eucatropine
[1]; [3]
  EC50: 10 mM
[2]; compared with eucatropine
  mydriasis in the rabbit eye (in words): reduced mydriasis
[2]; [4]
  RALR (60 min.): 0.73

## CC1CC(OC(=O)C(OC(=O)c2ccc(N(C)C)cc2)c2ccccc2)CC(C)(C)N1C.Cl (centres unmarked)
[1]; [3]
  EC50: 25 mM
[2]; [4]
  RALR (60 min.): 0.27

## CC1CC(OC(=O)C(OC(=O)c2ccnc3ccccc23)c2ccccc2)CC(C)(C)N1C.Cl (centres unmarked)
[1]
  antiperspirant potency relative to eucatropine (in words): a reduction in EC50 over eucatropine
[2]; compared with eucatropine
  mydriasis in the rabbit eye (in words): reduced mydriasis
[2]; [4]
  RALR (60 min.): 0.60

## CC1CC(OC(=O)C(OC(=O)C2CCC2)c2ccccc2)CC(C)(C)N1C.Cl (centres unmarked)
[1]; [3]
  EC50: 18 mM
[2]; rabbit, in vivo
  RALR (60 min.): 1.00

## CC1CC(OC(=O)C(OC(=O)C2CCCCC2)c2ccccc2)CC(C)(C)N1C.Cl (centres unmarked)
[1]; [3]
  EC50: 41 mM
[1]; [5]
  EC50: 43 mM

## CC1CC(OC(=O)C(OC(=O)CC2CCCCC2)c2ccccc2)CC(C)(C)N1C.Cl (centres unmarked)
[1]; [3]
  EC50: 87 mM
[2]; rabbit, in vivo
  RALR (60 min.): 0.67

## CC1CC(OC(=O)C(OC(=O)CC2CCCC2)c2ccccc2)CC(C)(C)N1C.Cl (centres unmarked)
[1]; [3]
  EC50: 67 mM
[2]; rabbit, in vivo
  RALR (60 min.): 1.00

## CC1CC(OC(=O)C(OC(=O)C2CC2)c2ccccc2)CC(C)(C)N1C.Cl (centres unmarked)
[1]; [3]
  EC50: 4.7 mM and 4.8 mM
[1]; [5]
  EC50: 36 mM
[2]; rabbit, in vivo
  RALR (60 min.): 1.00

## CC1CC(OC(=O)C(OC(=O)c2ccncc2)c2ccccc2)CC(C)(C)N1C.Cl (centres unmarked)
[1]
  antiperspirant potency relative to eucatropine (in words): only a slight decrease in antiperspirant potency relative to eucatropine
[1]; [3]
  EC50: 5.2 mM
[2]; rabbit, in vivo
  RALR (60 min.): 0.00
  mydriasis in the rabbit eye (in words): no mydriasis

## CC1CC(OC(=O)C(OC(=O)c2ccccn2)c2ccccc2)CC(C)(C)N1C.Cl (centres unmarked)
[1]
  antiperspirant potency relative to eucatropine (in words): only a slight decrease in antiperspirant potency relative to eucatropine
[1]; [3]
  EC50: 2 mM
[2]; rabbit, in vivo
  RALR (60 min.): 0.40

## CC1CC(OC(=O)C(OC(=O)C(Cl)c2ccccc2)c2ccccc2)CC(C)(C)N1C.Cl (centres unmarked)
[1]
  antiperspirant potency relative to eucatropine (in words): equalled or nearly equalled that of the parent eucatropine
[1]; [3]
  EC50: 1.4 mM

## COc1ccc(C(=O)OC(C(=O)OC2CC(C)N(C)C(C)(C)C2)c2ccccc2)cc1.Cl (centres unmarked)
[1]; [3]
  EC50: 16 mM

## O=C(O)C1CCCC1 [Cyclopentanecarboxylate]
[1]; [3]
  EC50: 78 mM
[2]; rabbit, in vivo
  RALR (60 min.): 0.67

## CC1CC(OC(=O)C(O)c2ccccc2)CC(C)(C)N1C (centres unmarked) [H, eucatropine]
[1]; Mus musculus, sc, parent eucatropine (ester group H)
  EC50: 7.2 mM
[2]; rabbit, in vivo
  RALR (60 min.): 1.00
  incomplete response (light reflex) in rabbits at 60 minutes: eight out of eight

## CC(C)C(=O)O [Isobutyrate]
[1]; [3]
  EC50: 1.6 mM
[2]; rabbit, in vivo
  RALR (60 min.): 0.88

## CC1CC(OC(=O)C(OC(=O)c2cccnc2)c2ccccc2)CC(C)(C)N1C.Cl (centres unmarked) [Nicotinate]
[1]
  antiperspirant potency relative to eucatropine (in words): only a slight decrease in antiperspirant potency relative to eucatropine
[1]; [3]
  EC50: 6.5 mM
[2]; [4]
  RALR (60 min.): 0.60

## CCCCCCCC(=O)OC(C(=O)OC1CC(C)N(C)C(C)(C)C1)c1ccccc1.Cl (centres unmarked) [Octanoate]
[1]; [3]
  EC50: 11 mM
[1]; [5]
  EC50: 9.6 mM
[2]; [4]
  RALR (60 min.): 0.93
[2]; [6]
  RALR (60 min.): 0.50

## Cc1ccc(C(=O)OC(C(=O)OC2CC(C)N(C)C(C)(C)C2)c2ccccc2)cc1.Cl (centres unmarked) [p-Toluate]
[1]; [3]
  EC50: 84 mM

## Benzoate
[1]
  antiperspirant potency relative to eucatropine (in words): more potent than eucatropine
[1]; [3]
  EC50: 0.3 mM
[1]; [5]
  EC50: 25 mM
[2]; [4]
  RALR (60 min.): 0.88 and 0.87
[2]; [6]
  RALR (60 min.): 0.20

## Phenylacetate
[1]
  antiperspirant potency relative to eucatropine (in words): equalled or nearly equalled that of the parent eucatropine
[1]; [3]
  EC50: 5.3 mM
[1]; [5]
  EC50: 78 mM
[2]; [4]
  RALR (60 min.): 1.00
[2]; [6]
  RALR (60 min.): 0.47
